Measured values published in the supplement of paper PMC10307832.

How the values were obtained:
Assay in all cases: relative viability (nuclei count vs DMSO), 5 days (fraction); higher = more cells survive
RAF265 + Decitabine = compound: Cn1c(Nc2ccc(C(F)(F)F)cc2)nc2cc(Oc3ccnc(-c4ncc(C(F)(F)F)[nH]4)c3)ccc21 [RAF265] + Nc1ncn([C@H]2C[C@H](O)[C@@H](CO)O2)c(=O)n1 [Decitabine] (partner 2 µM)
Procedure, shortened: (§1)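 Cells from lung cancer lines were seeded into 1536-well plates and, one day later, dosed by pin tool. Treatments were either a single drug or a fixed dose of an anchor drug with five library-drug doses (not always all listed) in √10 steps. After 5 days, nuclei were stained in a one-step fixation (final 0.05% Triton X-100, 1% formaldehyde, 1 ug/ml Hoechst) and counted on 4× images, and relative viability is the treated-to-vehicle nuclei ratio, as the median of duplicate plates.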

IPA-3 + Tozasertib = compound: C1=CC=C2C(=C1)C=CC(=C2SSC3=C(C=CC4=CC=CC=C43)O)O [IPA-3] + Cc1cc(Nc2cc(N3CCN(C)CC3)nc(Sc3ccc(NC(=O)C4CC4)cc3)n2)n[nH]1 [Tozasertib] (partner 0.1 µM)
Procedure, shortened: as §1

Doramapimod + OSI-027 = compound: Cc1ccc(-n2nc(C(C)(C)C)cc2NC(=O)Nc2ccc(OCCN3CCOCC3)c3ccccc23)cc1 [Doramapimod] + COc1cccc2cc(-c3nc([C@H]4CC[C@H](C(=O)O)CC4)n4ncnc(N)c34)[nH]c12 [OSI-027] (partner 0.5 µM)
Procedure, shortened: as §1

RAF265 + Linsitinib = compound: Cn1c(Nc2ccc(C(F)(F)F)cc2)nc2cc(Oc3ccnc(-c4ncc(C(F)(F)F)[nH]4)c3)ccc21 [RAF265] + C[C@]1(O)C[C@@H](c2nc(-c3ccc4ccc(-c5ccccc5)nc4c3)c3c(N)nccn32)C1 [Linsitinib] (partner 1 µM)
Procedure, shortened: as §1

Cell Line	relative viability (RAF265 + Decitabine; first compound 0.01 µM)	relative viability (RAF265 + Decitabine; first compound 0.03162 µM)	relative viability (RAF265 + Decitabine; first compound 0.1 µM)	relative viability (RAF265 + Decitabine; first compound 0.3162 µM)	relative viability (RAF265 + Decitabine; first compound 1 µM)	relative viability (IPA-3 + Tozasertib; first compound 0.2 µM)	relative viability (IPA-3 + Tozasertib; first compound 0.6325 µM)	relative viability (IPA-3 + Tozasertib; first compound 2 µM)	relative viability (IPA-3 + Tozasertib; first compound 6.325 µM)	relative viability (IPA-3 + Tozasertib; first compound 20 µM)	relative viability (Doramapimod + OSI-027; first compound 0.02 µM)	relative viability (Doramapimod + OSI-027; first compound 0.06325 µM)	relative viability (Doramapimod + OSI-027; first compound 0.2 µM)	relative viability (Doramapimod + OSI-027; first compound 0.6325 µM)	relative viability (Doramapimod + OSI-027; first compound 2 µM)	relative viability (RAF265 + Linsitinib; first compound 0.01 µM)	relative viability (RAF265 + Linsitinib; first compound 0.03162 µM)	relative viability (RAF265 + Linsitinib; first compound 0.1 µM)	relative viability (RAF265 + Linsitinib; first compound 0.3162 µM)	relative viability (RAF265 + Linsitinib; first compound 1 µM)
NCI-H522	0.651	0.585	0.604	0.729	0.617	0.596	0.535	0.72	0.621	0.565	0.667	0.705	0.767	0.68	0.656					
NCI-H1944	0.445	0.496	0.398	0.384	0.317	0.263	0.268	0.264	0.246	0.26	0.365	0.451	0.352	0.492	0.286	1.25	1.37	1.08	0.64	0.716
NCI-H727	0.885	0.854	0.708	0.805	0.75	0.659	0.615	0.828	0.529	0.568	0.497	0.556	0.688	0.472	0.57	0.38	0.26	0.254	0.327	0.132
NCI-H1650	0.424	0.439	0.426	0.4	0.472	0.485	0.414	0.489	0.421	0.517	0.692	0.689	0.713	0.76	0.459					
HCC-827	0.341	0.325	0.294		0.333	0.446	0.423	0.402	0.442	0.438	0.715	0.762	0.756	0.763	0.544	0.968	0.973	0.978		0.762
HCC-366	0.321	0.319	0.402	0.331	0.213	0.176	0.132	0.0972	0.141	0.0773	0.837	0.918	0.937	1.08	0.853	0.674	0.69	0.881	0.748	0.459
HARA	0.652	0.468	0.53	0.426	0.414	0.133	0.132	0.153	0.485	0.118	0.482	0.371	0.392		0.327	0.904	0.715	0.891	0.608	0.406
NCI-H322M	0.704	0.667	0.593	0.495	0.395	0.502	0.408	0.527	0.498	0.513	0.577	0.579	0.562	0.522	0.527	0.929	0.807	0.662	0.377	0.256
LXF-289	0.446	0.399	0.393	0.345	0.26	0.23	0.164	0.218	0.186	0.192	0.765	0.762	0.72	0.686	0.605	0.916	0.919	0.947	0.815	0.792
PC-3 [JPC-3]	0.924	0.785	0.831	0.488	0.655	0.995	0.847	0.869	0.833	0.878	0.845	0.735	0.742	0.779	0.749	1.03	0.911	1.04	0.416	0.722
CAL-12T						0.371	0.301	0.384	0.343	0.297	0.627	0.672	0.579	0.711	0.532	0.969	0.659	0.671	0.43	0.4
COR-L 105	0.688	0.773	0.599	0.497	0.436	0.335	0.463	0.32	0.403	0.342	0.799	0.745	0.703	0.771	0.612	1.17	0.882	0.976	0.725	0.504
NCI-H2347	0.676	0.561	0.574	0.526	0.382	0.585	0.598	0.614	0.593	0.656	0.509		0.474	0.452	0.423	1.2	0.923	0.924	0.744	0.544
NCI-H2126	0.607	0.56	0.563	0.573	0.412	0.922	0.78	0.875	0.842	0.872	0.79	0.689	0.631	0.71	0.58	0.712	0.691	0.743	0.574	0.49
NCI-H838	0.516	0.49	0.494	0.466	0.391	0.32	0.268	0.304	0.282	0.27	0.383	0.364	0.376	0.369	0.326	1.12	1.01	1.02	1.03	0.77
A549	0.226	0.232	0.259	0.318	0.155											0.61	0.536	0.648	0.273	0.249
NCI-H1648	0.453	0.557	0.518	0.4	0.391	0.753	0.545	0.646	0.391	0.482	0.249	0.254	0.257	0.26	0.268					
NCI-H1623						0.418	0.433	0.432	0.47	0.433	0.47	0.475	0.478	0.457	0.397					
SK-LU-1	0.847	0.597	0.508	0.569	0.414	0.328	0.36	0.338	0.339	0.302	0.332	0.382	0.379	0.35	0.383	1.14	0.7	0.687	0.523	0.428
NCI-H2085	0.547	0.506	0.571	0.587	0.59	0.907	0.748	0.823	0.908	0.951	0.645	0.706	0.688	0.698	0.544	0.894	0.945	0.938	0.98	0.917

Cell Line	relative viability (RAF265 + Decitabine; first compound 0.01 µM)	relative viability (RAF265 + Decitabine; first compound 0.03162 µM)	relative viability (RAF265 + Decitabine; first compound 0.1 µM)	relative viability (RAF265 + Decitabine; first compound 0.3162 µM)	relative viability (RAF265 + Decitabine; first compound 1 µM)	relative viability (IPA-3 + Tozasertib; first compound 0.2 µM)	relative viability (IPA-3 + Tozasertib; first compound 0.6325 µM)	relative viability (IPA-3 + Tozasertib; first compound 2 µM)	relative viability (IPA-3 + Tozasertib; first compound 6.325 µM)	relative viability (IPA-3 + Tozasertib; first compound 20 µM)	relative viability (Doramapimod + OSI-027; first compound 0.02 µM)	relative viability (Doramapimod + OSI-027; first compound 0.06325 µM)	relative viability (Doramapimod + OSI-027; first compound 0.2 µM)	relative viability (Doramapimod + OSI-027; first compound 0.6325 µM)	relative viability (Doramapimod + OSI-027; first compound 2 µM)	relative viability (RAF265 + Linsitinib; first compound 0.01 µM)	relative viability (RAF265 + Linsitinib; first compound 0.03162 µM)	relative viability (RAF265 + Linsitinib; first compound 0.1 µM)	relative viability (RAF265 + Linsitinib; first compound 0.3162 µM)	relative viability (RAF265 + Linsitinib; first compound 1 µM)
NCI-H460	0.505	0.458	0.567	0.499	0.48	0.464	0.462	0.727	0.516	0.453	0.612	0.721	0.658	0.753	0.585	0.812	0.692	0.647		0.378
Calu-6																0.94	0.83	0.523	0.279	0.223
RERF-LC-KJ	0.815	0.616	0.669	0.583	0.527	0.513	0.452	0.471	0.456	0.403	0.624	0.543	0.603	0.6	0.554	0.915	0.835	0.95	0.859	0.636
LCLC-103H	0.767	0.714	0.682	0.695	0.367	0.582	0.528	0.577	0.443	0.539	0.444	0.424	0.386	0.422	0.396	1.03	1.14	1.1	0.944	0.641
HCC-15	0.714	0.613	0.524	0.545	0.42	0.61	0.367	0.457	0.431	0.442	0.688	0.645	0.68		0.539	0.886	0.835	0.754	0.639	0.394
H3255	0.666	0.564	0.682	0.198	0.43	0.595	0.655	0.652	0.602	0.741	0.684	0.618	0.526	0.679	0.518	1	0.942	0.929	0.137	0.716
NCI-H1792	0.462	0.506	0.472	0.324	0.204						0.634	0.672	0.628	0.702	0.534	0.576	0.506	0.583	0.326	0.126
NCI-H1563											0.739	0.765	0.733	0.761	0.73	1.13	1.32	1.17	1.26	1.18
NCI-H596	1.06	0.975	0.913	1.13	0.925	0.968	0.907	1.11	1.02	1.04	0.653	0.658	0.665	0.783	0.57	1.05	0.97	1.1	1.09	0.657
NCI-H2087	0.287	0.257	0.251	0.188	0.147	0.273	0.349	0.274	0.221	0.253	0.567	0.449	0.51	0.655	0.506	0.827	0.844	0.9	0.699	0.587
NCI-H2342	0.717	0.672	0.727	0.784	0.714	0.526	0.505	0.6	0.57	0.596	0.622	0.657	0.614	0.776	0.542					
NCI-H1299																1	0.878	0.749	0.578	0.414
ChaGo-K-1	0.584	0.546	0.512	0.516	0.437	0.228	0.236	0.231	0.221	0.251	0.632	0.607	0.63	0.518	0.409					
SW 900	0.51	0.429	0.505	0.412	0.407	0.56	0.53	0.496	0.566	0.56	0.547	0.579	0.858	0.599	0.523					
EBC-1																0.963	0.856	0.754	0.577	0.503
NCI-H2228						0.245	0.255	0.29	0.301	0.294	0.779	0.513	0.571	0.671	0.388	0.628	0.698	0.409	0.436	0.327
IA-LM																0.641	0.532	0.536	0.732	0.404
NCI-H1703																0.43	0.561	0.819	0.171	0.251
NCI-H2170	0.482	0.439	0.499	0.366	0.386	0.822	0.777	0.675	0.644	0.769	0.724	0.784	0.716	0.712	0.677					
